Data set [1] can be described thus: Solubility of triclosan in PAO carrier fluid. The class given is physicochemical. The conditions noted are these: PAO without ester.
Data set [2] in a line: PAO/ester/triclosan migration from PP strips (weight loss, toluene wash, surface observation). The class given is physicochemical. The conditions noted are these: fast cooled PP strips. The method, then: Preparation of sample 24892-114-0 to 7: The polypropylene described above (85% by weight) was melt blended in a mixer with 15 wt % triclosan stock solution as prepared in Table 2. The mixed polymer was then compression molded into 4″×4″ squares with less than 1 mm thickness. Two methods were used to prepare the PP strip with very different results. One method includes fast cooling after the compression molding (quench sample with a 7° C. cooling surface). The sample strip had PAO fluid on surface indicating fast PAO migration after a few hours at room temperature. The other method included slow cooling after the compression molding (cool sample in ambient air, 23° C.). Sample strip appeared very dry with no apparent PAO fluid on surface. When this sample was put into 70° C. oven, slight oiliness was observed on the surface.
Table 4 below depicts the PAO/ester/Triclosan migration from the PP strips as measured by weight loss in 7 days.
For fast cooled PP strips, there was up to 1.8 wt % weight loss by toluene wash due to PAO/ester/Triclosan migration to the surface.

Turning to `Oc1cc(Cl)ccc1Oc1ccc(Cl)cc1Cl` [Triclosan], the “solubility in PAO alone” value in data set [1] was “low solubility”. Moreover, the “migration to the surface, confirmed by GC analysis of the toluene wash” value in data set [2] is “migrated to the surface”.

The values are drawn from US20090041820A1, “Functional polymer compositions” (priority 2007, published 2009).
